Test results reported in patent US11986532B2 (Arvinas Operations, Inc., priority 2021, dated 2024).

Molecular target: T1, BCL6 (Homo sapiens, UniProt P41182)
T1 construct: endogenous in cells; host or cells: T47D breast cancer epithelial cells
Test: Immunofluorescence protocol for high content imaging of BCL6 (degradation) in T47D cells, 3 days compound treatment
Format: cell-based
Conditions: for Dmax: T47D, read-out: Mean Dmax (%)** category; for DC50: read-out: Mean DC50 (nM)* category
Method in brief: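 For degradation, compound series (3-fold, 11 points, top 0.1 or 1 μM final) were added to adherent T47D cultures for 3 days. BCL6 immunostaining used a rabbit antibody at 1:300 and an Alexa-488 secondary, with imaging at 10× magnification.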

Structure (SMILES)	Dmax [%]	DC50 [nM]
CNC(=O)COc1cc2cc(Nc3nc(N4CCC(OC5CCC6(CC5)CN(c5cc(OC)cc7c5CN(C5CCC(=O)NC5=O)C7=O)C6)CC4)ncc3Cl)ccc2n(C(C)C)c1=O (stereo not drawn) [Compound 301, 2-{[6-({5-chloro-2-[4-({2-[2-(2,6-dioxopiperidin-3-yl)-6-methoxy-1-oxo-2,3-dihydro-1H-isoindol-4-yl]-2-azaspiro[3.5]nonan-7-yl}oxy)piperidin-1-yl]pyrimidin-4-yl}amino)-2-oxo-1-(propan-2-yl)-1,2-dihydroquinolin-3-yl]oxy}-N-methylacetamide]	50 to 70	< 10
CNC(=O)COc1cc2cc(Nc3nc(N4CCC(CN5CCC6(CC5)CN(c5ccc7c(c5OC)CN(C5CCC(=O)NC5=O)C7=O)C6)CC4)ncc3Cl)ccc2n(C(C)C)c1=O (stereo not drawn) [Compound 302, 2-{[6-({5-chloro-2-[4-({2-[2-(2,6-dioxopiperidin-3-yl)-4-methoxy-1-oxo-2,3-dihydro-1H-isoindol-5-yl]-2,7-diazaspiro[3.5]nonan-7-yl}methyl)piperidin-1-yl]pyrimidin-4-yl}amino)-2-oxo-1-(propan-2-yl)-1,2-dihydroquinolin-3-yl]oxy}-N-methylacetamide]	50 to 70	< 10
CNC(=O)COc1cc2cc(Nc3nc(N4CCC(O[C@H]5C[C@H](N6CC=C(c7ccc8c(c7)C(=O)N(C7CCC(=O)NC7=O)C8=O)CC6)C5)CC4)ncc3Cl)ccc2n(C(C)C)c1=O (stereo partly drawn) [Compound 303, 2-({6-[(5-chloro-2-{4-[(1r,3r)-3-{4-[2-(2,6-dioxopiperidin-3-yl)-1,3-dioxo-2,3-dihydro-1H-isoindol-5-yl]-1,2,3,6-tetrahydropyridin-1-yl}cyclobutoxy]piperidin-1-yl}pyrimidin-4-yl)amino]-2-oxo-1-(propan-2-yl)-1,2-dihydroquinolin-3-yl}oxy)-N-methylacetamide]	50 to 70	50 to 100
CNC(=O)COc1cc2cc(Nc3nc(N4CCC(OC5CCC6(CC5)CN(c5ccc(OC)c7c5CN(C5CCC(=O)NC5=O)C7=O)C6)CC4)ncc3Cl)ccc2n(C(C)C)c1=O (stereo not drawn) [Compound 304, 2-{[6-({5-chloro-2-[4-({2-[2-(2,6-dioxopiperidin-3-yl)-7-methoxy-1-oxo-2,3-dihydro-1H-isoindol-4-yl]-2-azaspiro[3.5]nonan-7-yl}oxy)piperidin-1-yl]pyrimidin-4-yl}amino)-2-oxo-1-(propan-2-yl)-1,2-dihydroquinolin-3-yl]oxy}-N-methylacetamide]	50 to 70	< 10
CNC(=O)COc1cc2cc(Nc3nc(N4CCN(CC5CCC6(CC5)CN(c5ccc7c(c5)CN(C5CCC(=O)NC5=O)C7=O)C6)CC4)ncc3Cl)ccc2n(C(C)C)c1=O (stereo not drawn) [Compound 305, 2-{[6-({5-chloro-2-[4-({2-[2-(2,6-dioxopiperidin-3-yl)-1-oxo-2,3-dihydro-1H-isoindol-5-yl]-2-azaspiro[3.5]nonan-7-yl}methyl)piperazin-1-yl]pyrimidin-4-yl}amino)-2-oxo-1-(propan-2-yl)-1,2-dihydroquinolin-3-yl]oxy}-N-methylacetamide]	50 to 70	< 10
CNC(=O)COc1cc2cc(Nc3nc(N4CCN(CC5CCC6(CC5)CN(c5cc7c(cc5F)C(=O)N(C5CCC(=O)NC5=O)C7)C6)CC4)ncc3Cl)ccc2n(C(C)C)c1=O (stereo not drawn) [Compound 306, 2-{[6-({5-chloro-2-[4-({2-[2-(2,6-dioxopiperidin-3-yl)-6-fluoro-1-oxo-2,3-dihydro-1H-isoindol-5-yl]-2-azaspiro[3.5]nonan-7-yl}methyl)piperazin-1-yl]pyrimidin-4-yl}amino)-2-oxo-1-(propan-2-yl)-1,2-dihydroquinolin-3-yl]oxy}-N-methylacetamide]	50 to 70	< 10
CNC(=O)COc1cc2cc(Nc3nc(N4CCN(CC5CCC6(CC5)CN(c5ccc7c(c5F)CN(C5CCC(=O)NC5=O)C7=O)C6)CC4)ncc3Cl)ccc2n(C(C)C)c1=O (stereo not drawn) [Compound 307, 2-{[6-({5-chloro-2-[4-({2-[2-(2,6-dioxopiperidin-3-yl)-4-fluoro-1-oxo-2,3-dihydro-1H-isoindol-5-yl]-2-azaspiro[3.5]nonan-7-yl}methyl)piperazin-1-yl]pyrimidin-4-yl}amino)-2-oxo-1-(propan-2-yl)-1,2-dihydroquinolin-3-yl]oxy}-N-methylacetamide]	50 to 70	< 10
CNC(=O)COc1cc2cc(Nc3nc(N4CCC(N(C)C5CCC6(CC5)CN(c5ccc7c(c5)C(=O)N(C5CCC(=O)NC5=O)C7=O)C6)CC4)ncc3Cl)ccc2n(C(C)C)c1=O (stereo not drawn) [Compound 308, 2-{[6-({5-chloro-2-[4-({2-[2-(2,6-dioxopiperidin-3-yl)-1,3-dioxo-2,3-dihydro-1H-isoindol-5-yl]-2-azaspiro[3.5]nonan-7-yl} (methyl)amino)piperidin-1-yl]pyrimidin-4-yl}amino)-2-oxo-1-(propan-2-yl)-1,2-dihydroquinolin-3-yl]oxy}-N-methylacetamide]	50 to 70	< 10
CNC(=O)COc1cc2cc(Nc3nc(N4CCC(O[C@H]5C[C@H](N6CC7(CCN7c7ccc8c(c7)CN(C7CCC(=O)NC7=O)C8=O)C6)C5)CC4)ncc3Cl)ccc2n(C(C)C)c1=O (stereo partly drawn) [Compound 309, 2-({6-[(5-chloro-2-{4-[(1r,3r)-3-{1-[2-(2,6-dioxopiperidin-3-yl)-1-oxo-2,3-dihydro-1H-isoindol-5-yl]-1,6-diazaspiro[3.3]heptan-6-yl}cyclobutoxy]piperidin-1-yl}pyrimidin-4-yl)amino]-2-oxo-1-(propan-2-yl)-1,2-dihydroquinolin-3-yl}oxy)-N-methylacetamide]	50 to 70	< 10
CNC(=O)COc1cc2cc(Nc3nc(N4CCC(O[C@H]5C[C@H](N6CC7(CCN7c7cccc8c7C(=O)N(C7CCC(=O)NC7=O)C8)C6)C5)CC4)ncc3Cl)ccc2n(C(C)C)c1=O (stereo partly drawn) [Compound 310, 2-({6-[(5-chloro-2-{4-[(1r,3r)-3-{1-[2-(2,6-dioxopiperidin-3-yl)-3-oxo-2,3-dihydro-1H-isoindol-4-yl]-1,6-diazaspiro[3.3]heptan-6-yl}cyclobutoxy]piperidin-1-yl}pyrimidin-4-yl)amino]-2-oxo-1-(propan-2-yl)-1,2-dihydroquinolin-3-yl}oxy)-N-methylacetamide]	50 to 70	< 10
CNC(=O)COc1cc2cc(Nc3nc(N4CCC(O[C@H]5C[C@H](N6CC7(CN(c8ccc9c(c8)C(=O)N(C8CCC(=O)NC8=O)C9=O)C7)C6)C5)CC4)ncc3Cl)ccc2n(C(C)C)c1=O (stereo partly drawn) [Compound 311, 2-({6-[(5-chloro-2-{4-[(1r,3r)-3-{6-[2-(2,6-dioxopiperidin-3-yl)-1,3-dioxo-2,3-dihydro-1H-isoindol-5-yl]-2,6-diazaspiro[3.3]heptan-2-yl}cyclobutoxy]piperidin-1-yl}pyrimidin-4-yl)amino]-2-oxo-1-(propan-2-yl)-1,2-dihydroquinolin-3-yl}oxy)-N-methylacetamide]	50 to 70	< 10
CNC(=O)COc1cc2cc(Nc3nc(N4CCC(OC5CCC6(CC5)CN(c5ccc(F)c7c5CN(C5CCC(=O)NC5=O)C7=O)C6)CC4)ncc3Cl)ccc2n(C(C)C)c1=O (stereo not drawn) [Compound 312, 2-{[6-({5-chloro-2-[4-({2-[2-(2,6-dioxopiperidin-3-yl)-7-fluoro-1-oxo-2,3-dihydro-1H-isoindol-4-yl]-2-azaspiro[3.5]nonan-7-yl}oxy)piperidin-1-yl]pyrimidin-4-yl}amino)-2-oxo-1-(propan-2-yl)-1,2-dihydroquinolin-3-yl]oxy}-N-methylacetamide]	50 to 70	< 10
